Source: patent publication US20110003854A1, “BREAST CANCER TREATMENT AND TREATMENT PREDICTION” (priority 2007, published 2011)
Read-outs that look alike come from different tables or passages of the source.

Legend:
[1] = system: ERα+/PR− tumors; conditions: postmenopausal women, follow-up 6 years, compared to patients treated with tamoxifen; cited from earlier work
[2] = system: breast cancer; conditions: cited from earlier work
[3] = system: breast cancer; conditions: five years adjuvant tamoxifen after primary surgery; ER positive tumors, irrespective of lymph node status; cited from earlier work
[4] = system: ERα positive breast cancer; conditions: cited from earlier work
[5] = system: ERα+/PR+ tumors; conditions: cited from earlier work
[6] = system: stage II primary breast carcinoma; assay: Controlled, randomized adjuvant tamoxifen trial; Kaplan-Meier survival analysis by CRABP2 level on breast cancer TMA; assay type: in vivo, human
Description: Median age at diagnosis was 45 (25-57) years. Median follow-up was 13.9 years and less than 2% of the patients had received adjuvant chemotherapy. The study design is described in detail elsewhere (Rydén et al, Eur J Cancer, 2005, 41(2): 256-64). Ethical permission was obtained from the Local Ethics Committees at Lund and Linköping Universities.
All cases had been histopathologically re-evaluated on hematoxylin and eosin stained slides. TMA:s were then constructed by sampling 2×0.6 mm cores per case from areas representative of invasive cancer. The TMA:s were prepared and automated immunohistochemistry was performed as described in section 3 above, using the CRABP2 antibody prepared as described in section 2 above.
As with “staining intensity” in Examples, Section 3 above, ni was subjectively evaluated in accordance to standards used in clinical histo-pathological diagnostics and outcome was classified as: absent (O)=no immunoreactivity, weak (1)=faint immunoreactivity, moderate (2)=medium immunoreactivity or strong (3)=distinct and strong immunoreactivity. Further, as with “the fraction of stained cells” in Examples, Section 3 above, nf was classified as <2%, 2-25%, 26-75% or >75%. Two categories were defined: “CRABP2 low” corresponding to nf<=25% and ni=0-1; and “CRABP2 high” corresponding to nf>25% and/or ni=2-3 (FIG. 1). This classification of samples was used for recurrence free survival (RFS) or breast cancer specific survival ([…]) analysis according to the Kaplan-Meier estimator, and the log-rank test was used to compare survival in different strata. All statistical tests were two-sided, and p-values of <[…] were considered significant. All calculations were made with the statistical package SPSS 12.0 (SPSS Inc. Illinois, USA).

CC(C)(C#N)c1cc(Cn2cncn2)cc(C(C)(C)C#N)c1 [anastrozole]
recurrence rate [1]: halved

CC/C(=C(\c1ccccc1)c1ccc(OCCN(C)C)cc1)c1ccccc1 [tamoxifen]
recurrence-free and overall survival ([2]; high PR level, >75% nuclear fraction, irrespectively of ERα status): significantly correlated with an increased recurrence-free and overall survival
recurrence-free and overall survival ([2]; lower PR level, <75%): no positive effect
breast cancer mortality [3]: reduces the breast cancer mortality
ERα positive patients that do not respond to treatment [4]: 30-40%
disease free survival ([5]; older patients (≧60 years), ERα+/PR+ tumors, tamoxifen vs no adjuvant treatment): significantly longer disease free survival
disease free survival ([5]; younger patients (<60 years)): no significant effect
recurrence free survival (RFS) ([6]; CRABP2 high tumors, irrespective of ER status, adjuvant tamoxifen 2 years vs control (FIG. 3B)): improved survival
recurrence free survival (RFS) ([6]; CRABP2 low tumors, irrespective of ER status, tamoxifen vs control (FIG. 3A)): no impact on survival
recurrence free survival (RFS) ([6]; ERα+ and CRABP2 high, tamoxifen vs control (FIG. 4B)): a trend towards a positive response
recurrence free survival (RFS) ([6]; ERα+ and CRABP2 low, tamoxifen vs control (FIG. 4A)): a trend towards a positive response
recurrence free survival (RFS) ([6]; ERα− and CRABP2 high, tamoxifen vs control (FIG. 5B)): positively affected
breast cancer specific survival (BCSS) ([6]; ERα− and CRABP2 high, tamoxifen vs control (FIG. 6B)): better trend
recurrence free survival (RFS) ([6]; ERα− and CRABP2 low, tamoxifen vs control (FIG. 5A)): negatively affected
breast cancer specific survival (BCSS) ([6]; ERα− and CRABP2 low, tamoxifen vs control (FIG. 6A)): worse trend
recurrence free survival (RFS) ([6]; ERα− and PR−, CRABP2 high, tamoxifen vs control (FIG. 11b)): better trend
breast cancer specific survival (BCSS) ([6]; ERα− and PR−, CRABP2 high, tamoxifen vs control (FIG. 12b)): better trend
recurrence free survival (RFS) ([6]; ERα− and PR−, CRABP2 low, tamoxifen vs control (FIG. 11a)): worse trend
breast cancer specific survival (BCSS) ([6]; ERα− and PR−, CRABP2 low, tamoxifen vs control (FIG. 12a)): worse trend
recurrence free survival (RFS) ([6]; ERα− and/or PR−, CRABP2 high, tamoxifen vs control (FIG. 9b)): better trend
breast cancer specific survival (BCSS) ([6]; ERα− and/or PR−, CRABP2 high, tamoxifen vs control (FIG. 10b)): better trend
recurrence free survival (RFS) ([6]; ERα− and/or PR−, CRABP2 low, tamoxifen vs control (FIG. 9a)): worse trend
breast cancer specific survival (BCSS) ([6]; ERα− and/or PR−, CRABP2 low, tamoxifen vs control (FIG. 10a)): worse trend
recurrence free survival (RFS) ([6]; PR− and CRABP2 high, tamoxifen vs control (FIG. 7B)): better survival probability trend
breast cancer specific survival (BCSS) ([6]; PR− and CRABP2 high, tamoxifen vs control (FIG. 8B)): better trend
recurrence free survival (RFS) ([6]; PR− and CRABP2 low, tamoxifen vs control (FIG. 7A)): negatively affected
breast cancer specific survival (BCSS) ([6]; PR− and CRABP2 low, tamoxifen vs control (FIG. 8A)): worse trend
